Converted amounts (≈) assume the structure as drawn. The source made the active and inactive calls. No cut-off for these calls is given here.
Experiments:
[1] = system: Mycobacterium kansasii; test: Antibacterial activity against Mycobacterium kansasii ATCC 12478 assessed as growth inhibition at 100 ug/ml incubated for 7 days by microplate alamar blue assay relative to control; type: functional; conditions: ATCC 12478, 168 h, time 7 day, read-out: GI
[2] = system: Mycobacterium tuberculosis; test: Antitubercular activity against Mycobacterium tuberculosis KMA 4244 by microplate alamar blue assay; type: functional
[3] = system: Mycobacterium marinum; test: Antibacterial activity against Mycobacterium marinum ATCC 927 incubated for 5 days by microplate alamar blue assay; type: functional; conditions: ATCC 927, 120 h, time 5 day
[4] = system: Staphylococcus aureus; test: Antibacterial activity against Staphylococcus aureus by microplate alamar blue assay; type: functional
[5] = system: Mycobacterium tuberculosis; test: Synergistic antitubercular activity against Mycobacterium tuberculosis H37Rv assessed as isoniazid MIC=>90 at 0.4 ug/ml by microplate alamar blue assay (reference value: 0.12 uM); type: functional; conditions: dose 0.4 µg/ml
[6] = system: Mycobacterium tuberculosis; test: Antitubercular activity against Mycobacterium tuberculosis H37Rv by microplate alamar blue assay; type: functional
[7] = system: Pseudomonas aeruginosa; test: Antibacterial activity against Pseudomonas aeruginosa by microplate alamar blue assay; type: functional
[8] = system: Mycobacterium avium; test: Antibacterial activity against Mycobacterium avium ATCC 15769 incubated for 6 days by microplate alamar blue assay; type: functional; conditions: ATCC 15769, 144 h, time 6 day
[9] = system: Enterococcus faecium; test: Antibacterial activity against Enterococcus faecium by microplate alamar blue assay; type: functional
[10] = system: Mycobacterium tuberculosis; test: Synergistic antitubercular activity against Mycobacterium tuberculosis H37Rv assessed as rifampin MIC=>90 at 0.4 ug/ml by microplate alamar blue assay (reference value: 0.06 uM); type: functional; conditions: dose 0.4 µg/ml
[11] = system: Mycobacterium kansasii; test: Antibacterial activity against Mycobacterium kansasii ATCC 12478 incubated for 7 days by microplate alamar blue assay; type: functional; conditions: ATCC 12478, 168 h, time 7 day
[12] = system: Mycobacterium tuberculosis; test: Synergistic antitubercular activity against Mycobacterium tuberculosis H37Rv in presence of rifampin by microplate alamar blue assay (reference value: 2.59 uM); type: functional
[13] = system: Mycobacterium tuberculosis; test: Synergistic antitubercular activity against Mycobacterium tuberculosis H37Rv in presence of bedaquiline by microplate alamar blue assay (reference value: 2.59 uM); type: functional
[14] = system: Klebsiella aerogenes; test: Antibacterial activity against Enterobacter aerogenes by microplate alamar blue assay; type: functional
[15] = system: Mycobacterium tuberculosis; test: Synergistic antitubercular activity against Mycobacterium tuberculosis H37Rv in presence of isoniazid by microplate alamar blue assay (reference value: 2.59 uM); type: functional
[16] = system: Klebsiella pneumoniae; test: Antibacterial activity against Klebsiella pneumoniae by microplate alamar blue assay; type: functional
[17] = system: Acinetobacter baumannii; test: Antibacterial activity against Acinetobacter baumannii by microplate alamar blue assay; type: functional
[18] = system: Mycobacteroides abscessus; test: Antibacterial activity against Mycobacterium abscessus ATCC 19977 assessed as growth inhibition at 100 ug/ml incubated for 3 days by microplate alamar blue assay relative to control; type: functional; conditions: ATCC 19977, 72 h, time 3 day, read-out: GI
[19] = system: Mycobacteroides chelonae; test: Antibacterial activity against Mycobacteroides chelonae ATCC 35752 incubated for 3 days by microplate alamar blue assay; type: functional; conditions: ATCC 35752, 72 h, time 3 day
[20] = system: Mycobacterium tuberculosis; test: Antitubercular activity against Mycobacterium tuberculosis KMA 4439 by microplate alamar blue assay; type: functional
[21] = system: Mycobacterium tuberculosis; test: Antitubercular activity against Mycobacterium tuberculosis H37Rv ATCC 27294 by microplate alamar blue assay; type: functional
[22] = system: Mitochondrial membrane; test: Induction of […] membrane potential loss in Mycobacterium tuberculosis H37Rv at <=MIC measured after 24 hrs by DiOC2 dye based fluorescence assay; type: cell membranes
[23] = system: Mycobacterium avium; test: Antibacterial activity against Mycobacterium avium ATCC 15769 assessed as growth inhibition at 100 ug/ml incubated for 6 days by microplate alamar blue assay relative to control; type: functional; conditions: ATCC 15769, 144 h, time 6 day, read-out: GI
[24] = Cytotoxicity against African green monkey Vero cells measured after 3 days by resazurin dye based fluorescence assay; type: toxicity, cell-based; conditions: African green monkey (Chlorocebus sabaeus)
[25] = system: Mycobacterium marinum; test: Antibacterial activity against Mycobacterium marinum ATCC 927 assessed as growth inhibition at 100 ug/ml incubated for 5 days by microplate alamar blue assay relative to control; type: functional; conditions: ATCC 927, 120 h, time 5 day, read-out: GI
[26] = system: Mycobacterium tuberculosis; test: Antitubercular activity against Mycobacterium tuberculosis KMA 5282 by microplate alamar blue assay; type: functional
[27] = system: Mycobacterium tuberculosis; test: Antitubercular activity against Mycobacterium tuberculosis H37Rv assessed as post antibiotic affect up to 100 ug/ml measured daily for up to 14 days by luminescence assay; type: functional, organism-based; conditions: dose <= 100.0 µg/ml, time <= 14.0 day
[28] = system: Mycobacterium tuberculosis; test: Bactericidal activity against Mycobacterium tuberculosis H37Rv measured up to 7 days by luminescence assay; type: functional; conditions: time <= 7 day
[29] = system: Mycobacteroides abscessus; test: Antibacterial activity against Mycobacterium abscessus ATCC 19977 incubated for 3 days by microplate alamar blue assay; type: functional; conditions: ATCC 19977, 72 h, time 3 day
[30] = system: Mycobacterium tuberculosis; test: Synergistic antitubercular activity against Mycobacterium tuberculosis H37Rv assessed as bedaquiline MIC=>90 at 0.4 ug/ml by microplate alamar blue assay (reference value: 0.05 uM); type: functional; conditions: dose 0.4 µg/ml
[31] = system: Mycobacterium tuberculosis; test: Antitubercular activity against Mycobacterium tuberculosis KMA 1354 by microplate alamar blue assay; type: functional
[32] = system: Mitochondrial membrane; test: Induction of […] membrane potential loss in Mycobacterium tuberculosis H37Rv at <=MIC measured after 15 mins by DiOC2 dye based fluorescence assay; type: cell membranes
[33] = system: Candida albicans; test: Antifungal activity against Candida albicans by microplate alamar blue assay; type: functional
[34] = system: Mycobacteroides chelonae; test: Antibacterial activity against Mycobacteroides chelonae ATCC 35752 assessed as growth inhibition at 100 ug/ml incubated for 3 days by microplate alamar blue assay relative to control; type: functional; conditions: ATCC 35752, 72 h, time 3 day, read-out: GI
[35] = system: Mycobacterium tuberculosis; test: Antitubercular activity against Mycobacterium tuberculosis KMA 3899 by microplate alamar blue assay; type: functional
[36] = system: Mycobacterium tuberculosis; test: Synergistic antitubercular activity against Mycobacterium tuberculosis H37Rv assessed as bedaquiline MIC=>90 at 0.8 ug/ml by microplate alamar blue assay (reference value: 0.05 uM); type: functional; conditions: dose 0.8 µg/ml
[37] = system: Mycobacterium tuberculosis; test: Synergistic antitubercular activity against Mycobacterium tuberculosis H37Rv in presence of rifampin by microplate alamar blue assay (reference value: 3.08 uM); type: functional
[38] = system: Mycobacterium tuberculosis; test: Synergistic antitubercular activity against Mycobacterium tuberculosis H37Rv assessed as rifampin MIC=>90 at 0.8 ug/ml by microplate alamar blue assay (reference value: 0.06 uM); type: functional; conditions: dose 0.8 µg/ml
[39] = system: Mycobacterium tuberculosis; test: Synergistic antitubercular activity against Mycobacterium tuberculosis H37Rv in presence of isoniazid by microplate alamar blue assay (reference value: 3.08 uM); type: functional
[40] = system: Mycobacterium tuberculosis; test: Synergistic antitubercular activity against Mycobacterium tuberculosis H37Rv assessed as isoniazid MIC=>90 at 0.8 ug/ml by microplate alamar blue assay (reference value: 0.12 uM); type: functional; conditions: dose 0.8 µg/ml
[41] = system: Mycobacterium tuberculosis; test: Synergistic antitubercular activity against Mycobacterium tuberculosis H37Rv in presence of bedaquiline by microplate alamar blue assay (reference value: 3.08 uM); type: functional

Compound	inhibition of growth at 100 µg/mL [1] [%]	MIC90 [2] [µg/mL]	MIC90 [3] [µg/mL]	MIC90 [4] [µg/mL]	MIC90 [6] [µg/mL]	MIC90 [7] [µg/mL]	MIC90 [8] [µg/mL]	MIC90 [9] [µg/mL]	MIC90 [11] [µg/mL]	MIC90 [14] [µg/mL]	MIC90 [16] [µg/mL]	MIC90 [17] [µg/mL]	inhibition of growth at 100 µg/mL [18] [%]	MIC90 [19] [µg/mL]	MIC90 [20] [µg/mL]	MIC90 [21] [µg/mL]	Activity [22]	inhibition of growth at 100 µg/mL [23] [%]	IC50 at 3 days [24] [µM]	inhibition of growth at 100 µg/mL [25] [%]	further results
CC(C)N(C(=O)CCNCCCC1CCCC1)C(C)C	0	2.92 (≈ 10.3 µM)	> 100	48.1 (≈ 170 µM)	1.48 (≈ 5.24 µM)	> 100	> 100	49.2 (≈ 174 µM)	> 100	> 100	> 100	> 100	0	> 100	3.11 (≈ 11 µM)	1.48 (≈ 5.24 µM)	inactive	0	69.7	26	MIC [5]: 0.12 µM; MIC [10]: 0.03 µM; MIC [12]: 1.38 µg/mL; MIC [13]: 2.33 µg/mL; MIC [15]: 2.45 µg/mL; MIC90 [26]: 4.37 µg/mL (≈ 15.5 µM); Activity [27]: inactive; MBC99 [28]: 3020 µg/mL (≈ 10700 µM); MIC90 [29]: > 100 µg/mL; MIC [30]: 0.04 µM; MIC90 [31]: 1.8 µg/mL (≈ 6.37 µM); Activity [32]: inactive; MIC90 [33]: 49.6 µg/mL (≈ 176 µM); inhibition of growth at 100 µg/mL [34]: 18%; MIC90 [35]: 1.54 µg/mL (≈ 5.45 µM)
CC(C)N(C(=O)CCNCCC(c1ccccc1)c1ccccc1)C(C)C	0	6.11 (≈ 16.7 µM)	> 100	96.5 (≈ 263 µM)	2.97 (≈ 8.1 µM)	> 100	> 100	95.8 (≈ 261 µM)	> 100	> 100	> 100	> 100	0	> 100	8.79 (≈ 24 µM)	3.11 (≈ 8.48 µM)	inactive	0	45.9	90	MIC [36]: 0.03 µM; MIC [37]: 2.01 µg/mL; MIC [38]: 0.04 µM; MIC [39]: 3.06 µg/mL; MIC90 [26]: 8.73 µg/mL (≈ 23.8 µM); Activity [27]: inactive; MBC99 [28]: 5480 µg/mL (≈ 15000 µM); MIC90 [29]: > 100 µg/mL; MIC [40]: 0.12 µM; MIC90 [31]: 4.58 µg/mL (≈ 12.5 µM); Activity [32]: inactive; MIC90 [33]: > 100 µg/mL; MIC [41]: 2.99 µg/mL; inhibition of growth at 100 µg/mL [34]: 74%; MIC90 [35]: 4.68 µg/mL (≈ 12.8 µM)

Source: ChEMBL document CHEMBL6182867, “Discovery of ultra short β-peptoids with selective activity against drug-resistant Mycobacterium tuberculosis” (Eur J Med Chem, 2025)
